Earlier results, collected in patent US20160235660A1, “COSMETIC COMPOSITION AND USE THEREOF” (EMS S.A., priority 2015, published 2016).

Tested on: facial melasma
Settings: hydroquinone 4% vs 0.75% kojic acid cream

For `Oc1ccc(O)cc1` [hydroquinone, 1,4-dihydroxybenzene], the “action in the treatment of melasma compared with kojic acid” value is given as “superiority”.
